Source: patent US20190175519A1, “Naloxone Transdermal Delivery Devices and Methods for Using the Same” (Teikoku Pharma USA, Inc., priority 2017, published 2019)

Test: Pharmacokinetics of transdermal naloxone formulations compared to intravenously administered naloxone
Set-up: species or system Gottingen mini-pigs
Details: female, Gottingen, minipig, in vivo; IV bolus 0.01 mg/kg via marginal ear vein; first time point collected; post dose
From the text: The purpose of this study was to determine the dermal irritation and pharmacokinetics of two transdermal naloxone formulations when worn for three days by naïve female Gottingen mini-pigs and to compare the pharmacokinetic transdermal profiles to the PK of intravenously (IV) administered naloxone.
Test materials (Naloxone Transdermal Formulations 1 & 2) were in the form of a single patch that was applied to the prepared skin site of the animals and remained on for a period of three (3) days.
The positive control article (marketed formulation), Naloxone (Narcan 0.4 mg/mL) was diluted with sterile 0.9% normal saline to a concentration of 0.04 mg/mL in order to achieve a desired dose volume of 0.25 mL/kg and dosage of 0.01 mg/kg. […]
Group 3: Narcan intravenous formulation (0.4 mg/mL) was diluted with sterile 0.9% normal saline to a concentration of 0.04 mg/mL. The dose volumes were calculated using the individual body weights of the pigs on the day of dosing. […]
The time of Test Material patch application and removal were recorded for each animal so that dermal scoring and PK time-points were calculated. The time of intravenous injection was also recorded so that PK time-points were calculated.

C=CCN1CC[C@]23c4c5ccc(O)c4O[C@H]2C(=O)CC[C@@]3(O)[C@H]1C5 [Naloxone, 17-allyl-4,5α-epoxy-3,14-dihydroxymorphinan-6-one]
Tmax: 5 min
